The term IC50 denotes the point on the concentration scale where inhibition reaches its midpoint.

The test deals with T1, UDP-N-acetylmuramoyl-tripeptide--D-alanyl-D-alanine ligase (Streptococcus pneumoniae (strain ATCC BAA-255 / R6), UniProt Q8DNV6).
T1 sequence (Q8DNV6 whole entry): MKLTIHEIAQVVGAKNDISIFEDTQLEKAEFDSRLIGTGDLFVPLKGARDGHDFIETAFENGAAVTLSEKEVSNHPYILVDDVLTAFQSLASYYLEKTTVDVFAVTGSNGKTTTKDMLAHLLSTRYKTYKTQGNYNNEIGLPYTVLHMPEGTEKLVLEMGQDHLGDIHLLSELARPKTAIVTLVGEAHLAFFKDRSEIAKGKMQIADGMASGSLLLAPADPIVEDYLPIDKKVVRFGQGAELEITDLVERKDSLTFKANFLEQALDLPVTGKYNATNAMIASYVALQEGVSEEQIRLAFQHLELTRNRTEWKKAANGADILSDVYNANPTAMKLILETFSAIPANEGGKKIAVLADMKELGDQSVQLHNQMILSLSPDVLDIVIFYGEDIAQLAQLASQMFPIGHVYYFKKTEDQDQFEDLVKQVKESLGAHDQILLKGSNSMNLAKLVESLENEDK
In words: Inhibition Assay. The text has this:
Inhibition of D-Ala-D-Ala adding enzyme (MurF) from Streptococcus pneumoniase.

Consider `N#Cc1c(NC(=O)c2cc(S(=O)(=O)NCCCCO)ccc2Cl)sc2c1CCC2` [MurF inhibitor, 4], for which the concentration for half-maximal inhibition (IC50) amounted to 22 µM. For the compound `N#Cc1c(NC(=O)c2cc(S(=O)(=O)C3CCOCC3)ccc2Cl)sc2c1CCC2` [MurF inhibitor, 3], half-maximal inhibition (IC50) was put at 9 µM. Consider `CCN(CC)S(=O)(=O)c1cc(C(=O)Nc2sc3c(c2C#N)CCC(c2ccc(O)cc2)C3)c(Cl)cc1Cl` (stereo not drawn) [MurF inhibitor, 15], for which the 50% inhibitory concentration (IC50) stood at 0.07 µM. For `N#Cc1cc(CCc2ccccn2)sc1NC(=O)c1cc(S(=O)(=O)N2CCOCC2)ccc1Cl` [MurF inhibitor, 14] the value was 6 µM; for `N#Cc1c(NC(=O)c2cc(S(=O)(=O)N3CCCCC3)ccc2Cl)sc2c1CCCC2` [MurF inhibitor, 5], 2.5 µM. For `CCN(CC)S(=O)(=O)c1ccc(Cl)c(C(=O)Nc2sccc2C#N)c1` [MurF inhibitor, 12] the value was 151 µM; for `N#Cc1c(NC(=O)c2cc(S(N)(=O)=O)ccc2Cl)sc2c1CCC2` [MurF inhibitor, 6], 78 µM; for `CCN(CC)S(=O)(=O)c1ccc(Cl)c(C(=O)Nc2sc(Br)cc2C#N)c1` [MurF inhibitor, 13], 12.6 µM.

Source of the values: BindingDB's records for doi:10.1111/j.1747-0285.2005.00317.x (Abbott Laboratories, 2006).
